Entries after “also recorded” stand apart in the source; their conditions may differ. Counter-ions that a name gives are not always drawn.
Assays:
Assay type in all cases: in vivo
[1] = tested on: Kentucky and Merion turfgrass mixture; experiment: Turfgrass growth retardation (height and fresh weight of clippings) after spraying; settings: for % Reduction in Weight / Reduction in Height: vs control
Protocol: Two known plant growth regulants were similarly tested. Some grass samples were not treated, only fertilized, as controls. Before treatment, the grass was cut and then fertilized with a 20-20-20 water-soluble fertilizer. Three pots were sprayed per treatment. […] The pots were placed in a plant growth room and were watered daily. The grass was cut at 21, 49 and 84 days after being treated; the blade height and total fresh weight of the clippings were measured.

soybean plants = experiment: Soybean yield after foliar spray at early flowering stage; settings: for Yield Improvement %: vs control
Description: Two 50 cm rows of soybean plants at the early flowering stage were sprayed with 100 ppm or 500 ppm of the cis-2,5-dimethylpyrrolidine salt of 9-fluorenecarboxylic acid, using a spray volume of about 375 liters/hectare (40 gallons/acre). For comparison, other rows were sprayed with like concentrations of two known compounds as designated below. Also 2 untreated rows were maintained to serve as a control: each of the plots was weeded by hand as needed. At maturity, each plot was harvested and the yield was determined.

[2] = tested on: field grown tomato plants; experiment: Fruit set and phytotoxicity in field grown tomato plants; settings: for Increase Over Control (%) of fruit set: 24 days; for Fruit Set Per Plant (After 24 days) / Phytotoxicity: 24 days after treatment; for Increase (%) of fruit set: initial to 24 days
Description: To determine fruit set effects by compounds of this invention, field grown tomato plants were foliage sprayed with the cis-2,5-dimethylpyrrolidine salt of […], 9-cis-2,5-dimethyl-1-pyrrolidinyl-2-chlorofluorene-9-carboxylic acid, methyl ester, and the commercial plant growth regulant, MAINTAIN CF-125 (methyl-2-chloro-9hydroxyfluorene-9-carboxylate, manufactured by U.S. Borax and Chemical Corp.). Rates of application employed were 5, 25, and 100 ppm when the tomato plants were in the late blooming to early fruit setting stage. Untreated plants were included in the test as controls. Five plants were sprayed for each chemical treatment. The number of fruit set and the degree of phytotoxicity to the plants were determined 24 days after treatment.

[3] = tested on: field grown tomato plants; experiment: Overall yield and fruit size of field grown tomatoes; settings: for Fruit Size, Green (% of Control): control 104.0 g; for Fruit Size, Red (% of Control): control 105.5 g
Description: This example illustrates the effects of compounds of this invention on overall yield of tomatoes. For the test, field grown tomato plants, when in the early flowering stage, were foliage sprayed with the particular compounds of the invention designated below, and with the commercial product CF-125 (Maintain), at rates of 10, 50 and 500 ppm. These rates correspond to applications of 3.69 g, 18.54 g and 185.4 g/hectare, respectively. Each treatment consisted of five plants; the experimental design was a complete randomized block with three replications. A block of untreated plants was included as the control. The fruit was harvested by hand and separated into […] ripe fruit and marketable green fruit.

[4] = 1.12 kilogram/hectare, after 21 days
[5] = 1.12 kilogram/hectare, after 49 days
[6] = 1.12 kilogram/hectare, after 84 days
[7] = 2.24 kilogram/hectare, after 21 days
[8] = 2.24 kilogram/hectare, after 49 days
[9] = 2.24 kilogram/hectare, after 84 days
[10] = 4.48 kilogram/hectare, after 49 days
[11] = 4.48 kilogram/hectare, after 84 days

## O=C(O)c1cccc2c1Cc1ccccc1-2 [Example 1, cis-2,5-dimethyl-1-pyrrolidine salt of 1-fluorenecarboxylic acid]
[1]; [4]
  % Reduction in Weight: 76%
  Reduction in Height: 50%
[1]; [5]
  % Reduction in Weight: 45%
  Reduction in Height: 45%
[1]; [6]
  % Reduction in Weight: 0%
  Reduction in Height: 0%
[1]; [7]
  % Reduction in Weight: 73%
  Reduction in Height: 48%
[1]; [8]
  % Reduction in Weight: 64%
  Reduction in Height: 46%
[1]; [9]
  % Reduction in Weight: 0%
  Reduction in Height: 0%
[1]; 4.48 kilogram/hectare, after 21 days
  Reduction in Height: 56%
[1]; [10]
  % Reduction in Weight: 63%
  Reduction in Height: 46%
[1]; [11]
  % Reduction in Weight: 19%
  Reduction in Height: 31%
[1]; in words
  appearance of treated turf (leaf, texture): fine leaf and smooth texture; it did not have the twisted, yellowish leaves
[1]; in words, compared with MAINTAIN CF-125 and MOW-LESS
  activity in controlling grass growth: more active in controlling grass growth than either MAINTAIN CF-125 or MOW-LESS
[1]; third dosage column, printed 1.12 kilogram/hectare, after 21 days
  % Reduction in Weight: 75%
Soybean plants; 100 ppm
  Yield (Kilograms) × 10^2: 19.38 Kilograms × 10^2
  Yield Improvement %: 9.8%
Soybean plants; 500 ppm
  Yield (Kilograms) × 10^2: 21.98 Kilograms × 10^2
  Yield Improvement %: 24.1%
[2]; 5 ppm
  Increase Over Control (%) of fruit set: 35%
  Fruit Set Per Plant (After 24 days): 16.2
  Phytotoxicity: 0
  Fruit Set Per Plant (Initial): 7.6
  Increase (%) of fruit set: 108%
[2]; 25 ppm
  Increase Over Control (%) of fruit set: 18%
  Fruit Set Per Plant (After 24 days): 21.0
  Phytotoxicity: 0
  Fruit Set Per Plant (Initial): 11.0
  Increase (%) of fruit set: 91%
[2]; 100 ppm
  Increase Over Control (%) of fruit set: 47%
  Fruit Set Per Plant (After 24 days): 23.8
  Phytotoxicity: light
  Fruit Set Per Plant (Initial): 10.8
  Increase (%) of fruit set: 120%
[3]; 10, 50 and 500 ppm, Example 1 decrease at 500 ppm
  tomato yield / fruit size, in words: enhanced, at the rates applied, either the total yield of tomatoes and/or the percentage of red fruit vs. green fruit; also recorded: caused a decrease in all yields when applied at a rate of 500 ppm
[3]; 10 ppm
  Fruit Yield, Green (% of Control): 92 % of Control
  Fruit Yield, Red (% of Control): 152 % of Control
  Total Yield (% of Control): 113 % of Control
  Fruit Size, Green (% of Control): 76 % of Control
  Fruit Size, Red (% of Control): 87 % of Control
[3]; 50 ppm
  Fruit Yield, Green (% of Control): 45 % of Control
  Fruit Yield, Red (% of Control): 149 % of Control
  Total Yield (% of Control): 80 % of Control
  Fruit Size, Green (% of Control): 93 % of Control
  Fruit Size, Red (% of Control): 73 % of Control
[3]; 500 ppm
  Fruit Yield, Green (% of Control): 54 % of Control
  Fruit Yield, Red (% of Control): 68 % of Control
  Total Yield (% of Control): 59 % of Control
  Fruit Size, Green (% of Control): 87 % of Control
  Fruit Size, Red (% of Control): 79 % of Control

Reference: patent publication US4461899A, “Fluorenecarboxylic acid derivatives” (Diamond Shamrock Chemicals Company, priority 1982, dated 1984)
